In ChEMBL document CHEMBL1142548, “Time-dependent intracellular trafficking of FITC-conjugated epigallocatechin-3-O-gallate in L-929 cells” (Bioorg Med Chem, 2008):

Tested on: L1210
Experiment: Cytotoxicity against mouse L1210 cells after 24 hrs by WST8 assay
Assay type: functional, cell-based
Conditions: L1210, 24 h

With `O=C(O[C@@H]1Cc2c(O)cc(O)cc2O[C@@H]1c1cc(O)c(O)c(O)c1)c1cc(O)c(O)c(O)c1` [EPIGALOCATECHIN GALLATE] the IC50 was 690 µM.
Work on `O=C1OC2(c3ccc(O)cc3Oc3cc(O)ccc32)c2ccc(N=C=S)cc21` yielded an IC50 of 700 µM.
In the case of `O=C(O[C@@H]1Cc2c(O)cc(O)cc2O[C@@H]1c1cc(O)c(O)c(O)c1)c1cc(O)c(O)c(OC(=S)Nc2ccc3c(c2)C(=O)OC32c3ccc(O)cc3Oc3cc(O)ccc32)c1`, the IC50 is reported as ≥ 325 µM.
